Laboratory results from PubChem BioAssay AID651717 (Broad Institute, 2012).

The compounds below were run on mESC Bmi1-luciferase reporter, firefly/renilla ratio, 24 h (assay: Bmi1-luciferase reporter activators in mESC, dose response, esBAF inhibitor project, mouse embryonic stem cells, cherry-pick (AID 651717);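 also: luciferase knocked into Bmi1 locus with EF-1a renilla as cell number control; rising ratio signals esBAF inhibition which derepresses Bmi1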).

Compound	AC40
CC(=O)Nc1ccc2c(c1)Cc1c(F)cccc1-2	0.977 µM
CO[C@H]1CN(C)C(=O)c2cc(NC(=O)NC(C)C)ccc2OC[C@@H](C)N(Cc2ccc(-c3ccccn3)cc2)C[C@@H]1C	22.6 µM
Cc1ccn2c(CC(C)(C)C)c(-c3ccc(F)cc3)nc2c1	1.38 µM
COc1ccc(-c2nnn(Cc3ccccc3)n2)cc1	0.621 µM
COc1ccc(NC(=O)Cc2ccccc2)cc1	8.22 µM
S=C1NC(c2ccccc2)=NCN1c1ccccc1	17.5 µM
CCOC(=O)N1CCN(C(=O)CSCC(=O)Nc2nc(-c3ccc4c(c3)OCO4)cs2)CC1	12.1 µM
CNc1oc(-c2ccc(OCc3ccccc3)cc2)nc1C#N	24.4 µM
CSc1ccc(CNc2ccc(C)c(C)c2)cc1	2.83 µM
c1ccc(-c2cnnc(N3CCCCC3)n2)cc1	1.99 µM
COc1ccc(C(=O)N=c2sc3ccccc3n2C)cc1OC	2.13 µM
Cc1sc2nc(-c3cccnc3)nc(Cl)c2c1-c1ccccc1	19.5 µM
Cn1c(-c2ncc(F)cc2F)cc2onc(-c3c(F)cccc3Cl)c2c1=O	0.47 µM
N#Cc1ccc(Nc2nc(-c3ccccc3)cs2)cc1	3.97 µM
Cc1ccc(NCSc2ccc(Cl)cc2)cc1	1.66 µM
Cc1cc2ncn(C(=O)N3CCC(C)CC3)c2cc1C	7.84 µM
CC(=O)Nc1ccc(-c2nc3c(C)cccc3[nH]2)cc1	1.25 µM
O=C(NC1CCCCC1)c1ccc2ccccc2c1O	1.27 µM
CCN(CC)C(=O)OCc1c(-c2ccccc2)ncc2ccccc12	2.25 µM
OC(c1ccccc1)c1nc(-c2ccc3c(c2)OCO3)cs1 (stereo unspecified)	3.37 µM
CCCNC(=O)Nc1ccc2c(c1)C(=O)N(C)C[C@H](OC)[C@@H](C)CN(Cc1ccc(-c3ccccn3)cc1)[C@H](C)CO2	1.73 µM

Compound	AC40
CC(C)(C)c1ccc(C(=O)c2cn[nH]c2-c2ccccc2O)cc1	7.24 µM
COc1cc(CNc2ccc(N3CCN(C(C)=O)CC3)cc2)ccc1OCc1ccc(F)cc1	3.93 µM
CCCC(=O)N1CCN(c2nc3ccc(Br)cc3s2)CC1	1.7 µM
CCCC1(C)Nc2ccccc2-c2nc3ccccc3n21 (stereo unspecified)	11.3 µM
Cc1ccc(Cl)c2c(N=Nc3ccccc3)c(O)[nH]c12	0.93 µM
Cc1ccc(NCC(=O)N/N=C/c2cc3ccccc3nc2Cl)cc1	30.6 µM
CCCC(=O)Nc1ccc2c(c1)C(=O)N(C)C[C@H](OC)[C@@H](C)CN(Cc1ccc(-c3ccccn3)cc1)[C@@H](C)CO2	8.13 µM
C/C(=N\OC(=O)NC(C)C)c1sc(-c2ccccc2)nc1C	7.63 µM
O=C(Nc1ccccc1)c1cc(C2CCCCN2S(=O)(=O)c2cccs2)on1 (stereo unspecified)	9.04 µM
COc1ccc(OCc2cc(C(=O)N(C)C(C)c3ccon3)no2)c(Cl)c1 (stereo unspecified)	23.4 µM
COc1cccc2cc(C(=O)N3CCc4ccccc4C3)c(=O)oc12	26.9 µM
CC(O)(c1ccccc1)c1nc(-c2cccc(C(=O)O)c2)cs1 (stereo unspecified)	4.13 µM
Oc1ccccc1/C=N/N1CCN(c2ccccn2)CC1	2.75 µM
COc1ccccc1C(=O)Nc1cccc2cccnc12	13.9 µM
O=C(Nc1ccccc1Cl)NC1CCCCCCC1	5.67 µM
COc1ccc(-c2ccc3n2Cc2cnnn2-c2ccccc2-3)cc1	4.57 µM
CC1CCN(C(=O)CCc2nnc(-c3ccccc3)o2)CC1	4.2 µM
CC1(C)Cc2c(c(N3CCCC3)nc3sc(C(=O)Nc4ccccc4)c(N)c23)CO1	6.24 µM
COc1ccc(-c2ccc3oc(-c4ccsc4)cc(=O)c3c2)cn1	1.67 µM
Cn1c(/C=C/c2ccc(Br)cc2)nc2ccccc2c1=O	4.88 µM
c1ccc(-c2ccc3[nH]ccc3c2)cc1	3.07 µM

Compound	AC40
COc1ccc(CCC(=O)N2CCc3ccccc32)cc1	5.22 µM
CC1CCN(c2oc(-c3cccc4ccccc34)nc2C#N)CC1	2.52 µM
CS(=O)(=O)N1CCc2cc(C(=O)Nc3ccc(Cl)cc3)ccc21	6.5 µM
CC(=O)c1ccc(OCc2cc(C(=O)N(C)Cc3cc(C)no3)no2)cc1	7.14 µM
Nc1ccccc1/C=C/c1ccccc1N	2.4 µM
CCc1ccc2cc3c(cc2n1)C(=O)c1ccccc1-3	2.32 µM
Cc1ccnc(NCc2cc(C)ccc2O)c1	12.8 µM
CN(C)c1ncnc2c1ncn2-c1ccccc1	9.34 µM
Cc1ccc(Nc2ncnc3sc(C)c(C)c23)cc1	3.76 µM
O=c1cc(-c2ccsc2)oc2ccc(-c3ccc4cc[nH]c4c3)cc12	9.01 µM
Cc1ccc(NC(=O)CN(C)S(=O)(=O)c2cccs2)cc1C	2.98 µM
CCCCNC(=O)CSc1nc2ccc(N3CCOCC3)cc2c(=O)n1Cc1ccc(OC)cc1	11 µM
O=C(c1csc(Nc2ccccc2Cl)n1)N1CCCC1	1.07 µM
CC(=O)N1N=C(c2ccc(Br)cc2)CC1c1ccc(Br)cc1 (stereo unspecified)	14.5 µM
COc1ccc([C@@H](C)NC(=O)c2ccc3oc(C(C)C)nc3c2)cc1	9.81 µM
Cc1ccc(N(Cc2ccccc2)C(=O)c2cccc(S(=O)(=O)N3CC(C)OC(C)C3)c2)cc1 (stereo unspecified)	29.6 µM
O=C(N/N=C/c1cnc2ccccc2n1)c1cccc(F)c1	4.89 µM
Cn1c(/C(C#N)=C(\O)c2ccc(Cl)s2)nc2ccccc21	3.09 µM
O=C(CCNC(=O)c1ccccc1)Nc1nc2ccccc2s1	3.91 µM
